In patent publication US12281079B2, “Quinoline derivatives, processes for their preparation and uses thereof for the treatment of cancer” (Lead Discovery Center GmbH, priority 2019, dated 2025):

Legend:
[1] = molecular target: mitochondrial RNA polymerase (POLRMT) (Mus musculus, UniProt Q8BKF1); assay: Homogeneous TR-FRET assay for mitochondrial transcription activity; type: biochemical; settings: homogeneous TR-FRET assay according to Example 4
Outline: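 Read-out is TR-FRET (ex 340, em 665 nm) from two adjacent labelled DNA probes annealing to the 407 bp transcript after EDTA/700 mM NaCl stop. Reaction: murine POLRMT, TFAM, TFB2M and LSP plasmid template, compound 10 μM or serial dilution, 10 min rt preincubation, 500 μM each nucleotide, 2 h rt.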

[2] = tested on: mitochondrial transcription (7S RNA) in HeLa cells; assay: Quantitative real time-PCR assay of inhibition of mitochondrial transcription (7S RNA) in HeLa cells; type: cell-based; settings: Homo sapiens, 4 h compound incubation, according to Example 5, read-out: cellular qPCR assay
Protocol: Quantitative real-time PCR (qRT-PCR), based on the TaqMan™ (Thermo Fisher Scientific, Waltham Mass.) technology, was carried out essentially as described in Held et al. (1996). HeLa cells were plated one day before compound treatment in RPMI medium supplemented with 10% Fetal Calf Serum and 2 mM L-glutamine. Cells were incubated with dilution series of compounds or vehicle (DMSO) for 4 h, prior to harvest and extraction of the RNA using the RNeasy Mini Kit (Qiagen, Hilden D), according to the manufacturer's instructions. RNA concentrations were measured spectroscopically, using a NanoDrop-2000 (Thermo Fisher Scientific, Waltham Mass.) and normalized prior to cDNA synthesis, using a ‘High-Capacity cDNA Reverse Transcription Kit’ (Thermo Fisher Scientific, Waltham Mass.). qRT-PCR was carried out using the ‘TaqMan Fast Advance Master Mix’ (Thermo Fisher Scientific, Waltham Mass.) on a 7500 Fast Real-Time PCR machine (Applied Biosystems, Foster City Calif.)
For these measurements, three genes were used to compare the effect of the scrutinized compounds in relation to their concentration. The POLRMT-gene was used to detect potential influences on nuclear transcription. Mitochondrial transcription in vivo was monitored by measurements 7S RNA. The TBP (TATA-box binding protein) gene was employed as the control (housekeeping gene) during qRT-PCR. The short-lived mitochondrial 7S RNA, which is not post-transcriptionally stabilized, allowed us to monitor rapid changes in mitochondrial transcription activity following compound addition. Biological triplicates were analyzed using the comparative CT Method (ΔΔCt) method (Bubner and Baldwin, 2004) and reported as Rq % values (Rq=Relative quantification=2−ΔΔCt).

mitochondrial RNA polymerase (POLRMT), sequence (Q8BKF1 42-1207): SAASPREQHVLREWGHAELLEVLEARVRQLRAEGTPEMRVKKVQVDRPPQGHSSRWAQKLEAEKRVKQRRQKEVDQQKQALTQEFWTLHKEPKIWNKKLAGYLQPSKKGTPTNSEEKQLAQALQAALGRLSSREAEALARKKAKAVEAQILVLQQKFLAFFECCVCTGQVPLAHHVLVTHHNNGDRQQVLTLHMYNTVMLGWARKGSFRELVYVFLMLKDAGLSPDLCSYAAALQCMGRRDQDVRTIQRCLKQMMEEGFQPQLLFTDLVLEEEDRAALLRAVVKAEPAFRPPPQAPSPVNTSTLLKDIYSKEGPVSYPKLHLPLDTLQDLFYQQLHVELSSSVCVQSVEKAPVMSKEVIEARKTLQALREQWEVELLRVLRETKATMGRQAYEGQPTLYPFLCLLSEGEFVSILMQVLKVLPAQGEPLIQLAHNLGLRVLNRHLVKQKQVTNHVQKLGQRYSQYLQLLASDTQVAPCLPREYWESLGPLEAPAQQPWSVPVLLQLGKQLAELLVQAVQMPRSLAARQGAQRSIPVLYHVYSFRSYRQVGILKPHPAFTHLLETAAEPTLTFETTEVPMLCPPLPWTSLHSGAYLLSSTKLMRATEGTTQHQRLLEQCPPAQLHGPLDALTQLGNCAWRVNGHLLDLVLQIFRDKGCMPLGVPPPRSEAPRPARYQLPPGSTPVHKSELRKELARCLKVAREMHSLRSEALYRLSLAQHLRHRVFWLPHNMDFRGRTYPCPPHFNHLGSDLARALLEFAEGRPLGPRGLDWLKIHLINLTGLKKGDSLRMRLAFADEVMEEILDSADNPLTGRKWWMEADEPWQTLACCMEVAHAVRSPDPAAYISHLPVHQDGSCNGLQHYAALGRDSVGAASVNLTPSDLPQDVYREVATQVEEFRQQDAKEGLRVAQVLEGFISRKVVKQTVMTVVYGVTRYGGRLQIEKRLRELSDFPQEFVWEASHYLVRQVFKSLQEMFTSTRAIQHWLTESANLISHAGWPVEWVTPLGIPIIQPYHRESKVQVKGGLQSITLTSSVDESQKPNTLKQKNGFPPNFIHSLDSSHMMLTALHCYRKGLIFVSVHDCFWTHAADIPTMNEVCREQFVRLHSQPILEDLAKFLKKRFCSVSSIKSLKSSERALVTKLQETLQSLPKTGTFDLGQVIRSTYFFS

Row | SMILES | IC50 [1] | IC50 [2]
1 | Cc1ccccc1-c1ccnc2cc(O[C@H](C)C(=O)N3CCC[C@H](C(=O)O)C3)ccc12 [Compound 1, (3S)-1-[(2R)-2-[[4-(o-tolyl)-7-quinolyl]oxy]propanoyl]piperidine-3-carboxylic acid] | < 20 nM | < 10 nM
2 | Cc1cccc(C)c1-c1ccnc2cc(O[C@H](C)C(=O)N3CCC[C@H](C(=O)O)C3)ccc12 [Compound 2, (3S)-1-[(2R)-2-[[4-(2,6-dimethylphenyl)-7-quinolyl]oxy]propanoyl]piperidine-3-carboxylic acid] | < 20 nM | < 10 nM
3 | Cc1cccc(C)c1-c1ccnc2cc(O[C@H](C)C(=O)N3CCC[C@H](CC(=O)O)C3)ccc12 [Compound 3, 2-[(3R)-1-[(2R)-2-[[4-(2,6-dimethylphenyl)-7-quinolyl]oxy]propanoyl]-3-piperidyl]acetic acid] | < 20 nM | < 10 nM
4 | CCOC(=O)[C@H]1CCCN(C(=O)[C@@H](C)Oc2ccc3c(-c4c(C)cccc4C)ccnc3c2)C1 [Compound 4, ethyl (3S)-1-[(2R)-2[[4-(2,6-dimethylphenyl)-7-quinolyl]oxy]propanoyl]piperidine-3-carboxylate] | < 20 nM | < 10 nM
5 | Cc1cccc(C)c1-c1ccnc2cc(O[C@H](C)C(=O)N3CCC[C@@H](CC(=O)O)C3)ccc12 [Compound 5, 2-[(3S)-1-[(2R)-2-[[4-(2,6-dimethylphenyl)-7-quinolyl]oxy]propanoyl]-3-piperidyl]acetic acid] | < 20 nM | < 10 nM
6 | C[C@@H](Oc1ccc2c(-c3ccccc3Cl)ccnc2c1)C(=O)N1CCC[C@@H](C(=O)O)C1 [Compound 7, (3R)-1-[(2R)-2-[[4-(2-chlorophenyl)-7-quinolyl]oxy]propanoyl]piperidine-3-carboxylic acid] | < 20 nM | < 10 nM
7 | CCOC(=O)C[C@H]1CCCN(C(=O)[C@@H](C)Oc2ccc3c(-c4ccccc4C)ccnc3c2)C1 [Compound 8, ethyl 2-[(3R)-1-[(2R)-2-[[4-(o-tolyl)-7-quinolyl]oxy]propanoyl]-3-piperidyl]acetate] | < 20 nM | 50 to 500 nM
8 | C[C@@H](Oc1ccc2c(-c3ccccc3Cl)ccnc2c1)C(=O)N1CCC[C@H](C(=O)O)C1 [Compound 9, (3S)-1-[(2R)-2-[[4-(2-chlorophenyl)-7-quinolyl]oxy]propanoyl]piperidine-3-carboxylic acid] | < 20 nM | < 10 nM
9 | C[C@@H](Oc1ccc2c(-c3ccc(F)cc3Cl)ccnc2c1)C(=O)N1CCC[C@H](C(=O)O)C1 [Compound 10, (3S)-1-[(2R)-2-[[4-(2-chloro-4-fluoro-phenyl)-7-quinolyl]oxy]propanoyl]piperidine-3-carboxylic acid] | < 20 nM | 10 to 50 nM
10 | C[C@@H](Oc1ccc2c(-c3ccc(F)cc3Cl)ccnc2c1)C(=O)N1CCC[C@H](c2nn[nH]n2)C1 [Compound 11, (2R)-2-[[4-(2-chloro-4-fluoro-phenyl)-7-quinolyl]oxy]-1-[(3S)-3-(2H-tetrazol-5-yl)-1-piperidyl]propan-1-one] | < 20 nM | 50 to 500 nM
11 | C[C@@H](Oc1ccc2c(-c3ccccc3Cl)cc(F)nc2c1)C(=O)N1CCC[C@H](C(=O)O)C1 [Compound 12, (3S)-1-[(2R)-2-[[4-(2-chlorophenyl)-2-fluoro-7-quinolyl]oxy]propanoyl]piperidine-3-carboxylic acid] | < 20 nM | < 10 nM
12 | Cc1ccccc1-c1ccnc2cc(O[C@H](C)C(=O)N3CCC[C@H](CC(=O)O)C3)ccc12 [Compound 13, 2-[(3R)-1-[(2R)-2-[[4-(o-tolyl)-7-quinolyl]oxy]propanoyl]-3-piperidyl]acetic acid] | 20 to 100 nM | 10 to 50 nM
13 | CCOC(=O)[C@H]1CCCN(C(=O)[C@@H](C)Oc2ccc3c(-c4ccccc4C)ccnc3c2)C1 [Compound 14, ethyl (3S)-1-[(2R)-2-[[4-(o-tolyl)-7-quinolyl]oxy]propanoyl]piperidine-3-carboxylate] | 20 to 100 nM | 50 to 500 nM
14 | CCOC(=O)C[C@H]1CCCN(C(=O)[C@@H](C)Oc2ccc3c(-c4ccc(F)cc4Cl)ccnc3c2)C1 [Compound 15, ethyl 2-((R)-1-((R)-2-((4-(2-chloro-4-fluorophenyl)quinolin-7-yl)oxy)propanoyl)piperidin-3-yl)acetate] | 20 to 100 nM | 50 to 500 nM
15 | C[C@@H](Oc1ccc2c(-c3ccccc3Cl)ccnc2c1)C(=O)N1CCC[C@H](CC(=O)O)C1 [Compound 16, 2-[(3R)-1-[(2R)-2-[[4-(2-chlorophenyl)-7-quinolyl]oxy]propanoyl]-3-piperidyl]acetic acid] | 20 to 100 nM | 50 to 500 nM
16 | C[C@@H](Oc1ccc2c(-c3ccc(F)cc3Cl)ccnc2c1)C(=O)N1CCC[C@@H](C(=O)O)C1 [Compound 17, (3R)-1-[(2R)-2-[[4-(2-chloro-4-fluoro-phenyl)-7-quinolyl]oxy]propanoyl]piperidine-3-carboxylic acid] | 20 to 100 nM | 50 to 500 nM
17 | C[C@@H](Oc1ccc2c(-c3ccc(F)cc3Cl)ccnc2c1)C(=O)N1CCC[C@H](CC(=O)O)C1 [Compound 18, 2-((R)-1-((R)-2-((4-(2-chloro-4-fluorophenyl)quinolin-7-yl)oxy)propanoyl)piperidin-3-yl)acetic acid] | 20 to 100 nM | 50 to 500 nM
18 | C[C@@H](Oc1ccc2c(-c3ccc(F)cc3Cl)ccnc2c1)C(=O)N1CC[C@H](C(=O)O)C1 [Compound 19, (3S)-1-[(2R)-2[[4-(2-chloro-4-fluoro-phenyl)-7-quinolyl]oxy]propanoyl]pyrrolidine-3-carboxylic acid] | 20 to 100 nM | 50 to 500 nM

Further lines, results first:

Row | IC50 [1] | IC50 [2] | SMILES
19 | < 20 nM | < 10 nM | Cc1cc(F)cc(C)c1-c1ccnc2cc(O[C@H](C)C(=O)N3CCCC(C4(C(=O)O)CC4)C3)ccc12 (mixture of isomers) [Compound 182, 1-[1-[rac-(2R)-2-[[4-(4-fluoro-2,6-dimethyl-phenyl)-7-quinolyl]oxy]propanoyl]-3-piperidyl]cyclopropanecarboxylic acid]
20 | < 20 nM | < 10 nM | Cc1cc(F)cc(C)c1-c1ccnc2cc(O[C@H](C)C(=O)N3CCCC(C(C)(C)C(=O)O)C3)ccc12 (mixture of isomers) [Compound 186, 2-methyl-2-[1-[rac-(2R)-2-[[4-(4-fluoro-2,6-dimethyl-phenyl)-7-quinolyl]oxy]propanoyl]-3-piperidyl]propanoic acid]
21 | < 20 nM | < 10 nM | Cc1cc(F)cc(C)c1-c1ccnc2cc(O[C@H](C)C(=O)N3C(C)CCCC3C)ccc12 (mixture of isomers) [Compound 191, rac-(2R)-1-(2,6-dimethyl-1-piperidyl)-2-[[4-(4-fluoro-2,6-dimethyl-phenyl)-7-quinolyl]oxy]propan-1-one]
22 | 20 to 100 nM | 10 to 50 nM | C[C@@H](Oc1ccc2c(-c3ccc(F)cc3Cl)ccnc2c1)C(=O)N1CCCC(C2(C(=O)O)CC2)C1 (mixture of isomers) [Compound 194, 1-[1-[rac-(2R)-2-[[4-(2-chloro-4-fluoro-phenyl)-7-quinolyl]oxy]propanoyl]-3-piperidyl]cyclopropanecarboxylic acid]
23 | 20 to 100 nM | < 10 nM | CC1CCCCN1C(=O)[C@@H](C)Oc1ccc2c(-c3ccc(F)cc3Cl)ccnc2c1 (mixture of isomers) [Compound 200, rac-(2R)-2-[[4-(2-chloro-4-fluoro-phenyl)-7-quinolyl]oxy]-1-(2-methyl-1-piperidyl)propan-1-one]
24 | 100 to 1000 nM | 10 to 50 nM | C[C@@H](Oc1ccc2c(-c3c(Cl)cc(F)cc3Cl)ccnc2c1)C(=O)N1CCCC(C2(O)CC2)C1 (mixture of isomers) [Compound 203, rac-(2R)-2-[[4-(2,6-dichloro-4-fluoro-phenyl)-7-quinolyl]oxy]-143-(1-hydroxycyclopropyl)-1-piperidyl]propan-1-one]
25 | 20 to 100 nM | 10 to 50 nM | C[C@@H](Oc1ccc2c(-c3ccc(F)cc3Cl)ccnc2c1)C(=O)N1CCCCC1 [Compound 20, (2R)-2[[4-(2-chloro-4-fluoro-phenyl)-7-quinolyl]oxy]-1-(1-piperidyl)propan-1-one]
26 | 20 to 100 nM | 500 to 5000 nM | Cc1ccccc1-c1cc(Cl)nc2cc(O[C@H](C)C(=O)N3CCC[C@H](CC(=O)O)C3)ccc12 [Compound 21, 2-[(3R)-1-[(2R)-2-[[2-chloro-4-(o-tolyl)-7-quinolyl]oxy]propanoyl]-3-piperidyl]acetic acid]
27 | 20 to 100 nM | 50 to 500 nM | C[C@@H](Oc1ccc2c(-c3ccc(F)cc3Cl)ccnc2c1)C(=O)N1CCC[C@@H](CC(=O)O)C1 [Compound 22, 2-[(3S)-1-[(2R)-2-[[4-(2-chloro-4-fluoro-phenyl)-7-quinolyl]oxy]propanoyl]-3-piperidyl]acetic acid]
